Data from article PMC3651934 (2011).

Columns and labels:
Test in all cases: ITC
[1] = system: SAM-I riboswitch G3nU (RNA, riboswitch) GGCUUAUCAAGAGAGGUUGAGGGACUGGCCCGACGAAACCCGGCAACCAGAAAUGGUGCCAAUUCCUGCAGCGGAAACGUUGAAAGAUGAGCCG; conditions: 100 mM KCl, 10 mM MgCl2; 50 mM HEPES pH 7.5, 30 °C
[2] = system: SAM-I riboswitch A1nC (RNA, riboswitch) GGCUUAUCAAGAGAGGUGGCGGGACUGGCCCGACGAAACCCGGCAACCAGAAAUGGUGCCAAUUCCUGCAGCGGAAACGUUGAAAGAUGAGCCG; conditions: 100 mM KCl, 10 mM MgCl2; 50 mM HEPES pH 7.5, 30 °C; 100 μM SAM titrated into 10 μM RNA; no heat evolved
[3] = system: SAM-I riboswitch G2nA (RNA, riboswitch) GGCUUAUCAAGAGAGGUGAAGGGACUGGCCCGACGAAACCCGGCAACCAGAAAUGGUGCCAAUUCCUGCAGCGGAAACGUUGAAAGAUGAGCCG; conditions: 100 mM KCl, 10 mM MgCl2; 50 mM HEPES pH 7.5, 30 °C
[4] = system: SAM-I riboswitch A1nC, G2nU, G3nU (RNA, riboswitch) GGCUUAUCAAGAGAGGUUUCGGGACUGGCCCGACGAAACCCGGCAACCAGAAAUGGUGCCAAUUCCUGCAGCGGAAACGUUGAAAGAUGAGCCG; conditions: 100 mM KCl, 10 mM MgCl2; 50 mM HEPES pH 7.5, 30 °C; 100 μM SAM titrated into 10 μM RNA; no heat evolved
[5] = system: SAM-I riboswitch G2nU, G3nU (RNA, riboswitch) GGCUUAUCAAGAGAGGUUUAGGGACUGGCCCGACGAAACCCGGCAACCAGAAAUGGUGCCAAUUCCUGCAGCGGAAACGUUGAAAGAUGAGCCG; conditions: 100 mM KCl, 10 mM MgCl2; 50 mM HEPES pH 7.5, 30 °C
[6] = system: SAM-I riboswitch A1nU (RNA, riboswitch) GGCUUAUCAAGAGAGGUGGUGGGACUGGCCCGACGAAACCCGGCAACCAGAAAUGGUGCCAAUUCCUGCAGCGGAAACGUUGAAAGAUGAGCCG; conditions: 100 mM KCl, 10 mM MgCl2; 50 mM HEPES pH 7.5, 30 °C; 100 μM SAM titrated into 10 μM RNA; no heat evolved
[7] = system: SAM-I riboswitch G2nC (RNA, riboswitch) GGCUUAUCAAGAGAGGUGCAGGGACUGGCCCGACGAAACCCGGCAACCAGAAAUGGUGCCAAUUCCUGCAGCGGAAACGUUGAAAGAUGAGCCG; conditions: 100 mM KCl, 10 mM MgCl2; 50 mM HEPES pH 7.5, 30 °C; 100 μM SAM titrated into 10 μM RNA; no heat evolved
[8] = system: SAM-I riboswitch, natural k-turn (RNA, riboswitch) GGCUUAUCAAGAGAGGUGGAGGGACUGGCCCGACGAAACCCGGCAACCAGAAAUGGUGCCAAUUCCUGCAGCGGAAACGUUGAAAGAUGAGCCG; conditions: 100 mM KCl, 10 mM MgCl2; 50 mM HEPES pH 7.5, 30 °C

Kd [1]: 0.34 ± 0.04 µM
binding [2]: no
Kd [3]: 0.31 ± 0.06 µM
binding [4]: no
Kd [5]: 1.95 ± 0.27 µM
binding [6]: no
binding [7]: no
Kd [8]: 0.54 ± 0.25 µM
SMILES: C[S+](CC[C@H](N)C(=O)O)C[C@H]1O[C@@H](n2cnc3c(N)ncnc32)[C@H](O)[C@@H]1O (some centres unmarked)
